Reference: patent US7348155B2, “Method for identifying compounds for treating aging processes in the coronary circulatory system” (Sanofi-Aventis Deutschland GmbH, priority 2001, dated 2008)
“And” between values parts separate entries of the source, which are not always exact repeats. Equal entries are not always repeated.

How the values were obtained:
Format in all cases: cell-based
[1] = test system: human cardiac fibroblasts from explanted hearts in the terminal stage of cardiac insufficiency; test: Procollagen type I C-peptide ELISA (collagen synthesis) in fibroblasts from hearts in the terminal stage of cardiac insufficiency (EFH); details: 10^−7 mol/l; for Collagen synthesis (procollagen type I C-peptide, Absorption, in % of the controls), MV: mean value over EFH hearts (SEM as spread)
Method: Human cardiac fibroblasts were isolated from seven explanted human hearts in the terminal stage of cardiac insufficiency due to dilated cardiomyopathy. Four cell preparations were also made from healthy donor hearts. The fibroblasts were isolated in sterile 10 cm Petri dishes and cultured as previously described. After about 12 weeks of culturing, the cells reached the second passage with a confluence of approx. 80%. […] The determinations were carried out in duplicate or in triplicate. After the stimulation, the cells were washed, removed from the Petri dishes with 1 ml of PBS and centrifuged down in Eppendorf tubes (100 rpm, 5 min, 4° C.). The supernatant was discarded. 100 ul of lysis buffer (Nonidet P40, 0.5%, SDS 0.5%) were added to about 50 ul of cells and the mixture was incubated on ice for a further 20 minutes. The lysate was centrifuged once again (20 minutes, 1400 rpm, 4° C.) and the supernatant was used for the subsequent experiments. Protein was determined by means of the BCA (bicinchoninic acid) assay. The homogenates were diluted down to a protein concentration of 2 ug/ul.
(§1) Procollagen type I C-peptide in the fibroblasts from all the hearts was determined on a 96-well microtiter plate using a commercially obtainable solid-phase ELISA assay (TaKaRa Biomedicals, Shuzo Co, Ltd.). The assay was carried out in accordance with the manufacturer's instructions. […] The values for the procollagen type I C-peptide were determined using a standard curve of 10-640 ng/ml. The standards were provided by the manufacturer. The absorption values for the stimulations obtained with the controls (buffer) were set at 100%. The absorption values for the stimulated cells were related to the control values obtained for the same heart. In each case, the mean values from duplicate or triplicate determinations were used for the calculations. A bilateral, unpaired t test was used for statistically evaluating the comparison of the stimulation responses in control cells and in cardiac insufficiency cells.

[2] = test system: human cardiac fibroblasts from healthy donor hearts; test: Procollagen type I C-peptide ELISA (collagen synthesis) in fibroblasts from control (healthy donor) hearts; details: 10^−7 mol/l; for Collagen synthesis (procollagen type I C-peptide, Absorption, in % of the controls), MV: mean value over control (donor) hearts
Method: Human cardiac fibroblasts were isolated from seven explanted human hearts in the terminal stage of cardiac insufficiency due to dilated cardiomyopathy. Four cell preparations were also made from healthy donor hearts. The fibroblasts were isolated in sterile 10 cm Petri dishes and cultured as previously described. After about 12 weeks of culturing, the cells reached the second passage with a confluence of approx. 80%. At this stage, the serum was withdrawn for 48 hours and the cells were subsequently stimulated for various intervals of time (between 6 and 24 hours) with UII, Ang II, TNFalpha, TGFβ, UII+TNFa, (in each case 10^−7 mol/l), or buffer (control). The determinations were carried out in duplicate or in triplicate. After the stimulation, the cells were washed, removed from the Petri dishes with 1 ml of PBS and centrifuged down in Eppendorf tubes (100 rpm, 5 min, 4° C.). The supernatant was discarded. 100 ul of lysis buffer (Nonidet P40, 0.5%, SDS 0.5%) were added to about 50 ul of cells and the mixture was incubated on ice for a further 20 minutes. The lysate was centrifuged once again (20 minutes, 1400 rpm, 4° C.) and the supernatant was used for the subsequent experiments. Protein was determined by means of the BCA (bicinchoninic acid) assay. The homogenates were diluted down to a protein concentration of 2 ug/ul.
as §1

[3] = test system: fibroblasts from human hearts; test: Induction of mRNAs (collagen 1, MMP2, TGFbeta1, CTGF) in heart fibroblasts, real-time PCR; details: 1 μM, 6 hours stimulation, fibroblasts from three human hearts, GAPDH mRNA as standard reference
Method: Fibroblasts were isolated from human hearts as described in Cell and Tissue Research 286, 145-153 (1996). 96-98% of the resulting cell culture consisted of fibroblasts.
For the purpose of implementing this procedure, heart tissue was cut into small pieces and incubated three times, at 37° C. for 20 minutes, in KHB (Krebs Henseleit buffer) containing 2 mg of collagenase/ml and 2 mg of dispase/ml. The homogenates were combined and then centrifuged. The sediments were taken up in 10 ml of KHB. The cells were added, in portions of in each case 2 to 3 ml, to uncoated plastic containers. The volume was made up to 10 ml with DMEM (Dulbecco's modification of Eagle's medium) containing […] and 10% FCS (fetal calf serum). After having been incubated at 37° C. for 1 hour, the cells were washed twice with PBS (phosphate-buffered saline) and subsequently cultured, at 37° C. and 5% CO2, for approx. 4-8 weeks until 90% confluence had been reached. There then followed two further passages of in each case 4 weeks' duration. The cells employed in the present experiments were used after the second passage and at 70% to 90% confluence (approx. 3 months after isolation).
The reagents for implementing the cell culture techniques were obtained from Gibco BRL Life Technologies. The cells were first of all kept, at 37° C., in serum-free DMEM containing 4000 mg of glucose/l, 2 mM L-glutamine, 100 μg/0.1 mg of penicillin/streptomycin/ml and 0.1% BSA (bovine serum albumin) before angiotensin II or urotensin II was added, […] RNA was then prepared from the cells after 6 hours.
The RNA was isolated by means of standard methods using guanidinium chloride.
Reverse transcriptase (10 units/ng of RNA) was used to transcribe 500 ng of the RNA from each sample into DNA. For degrading the DNA, the entire volume, containing approx. 8-10 μg of RNA, was incubated with DNase I.
The RNAs were quantified using a LightCycler and a Fast Start SYBR Green RT-PCR kit supplied by Roche Molecular Biochemicals. Corresponding kits from other companies such as Applied Biosystems, Bio-Rad or Stratagene are also suitable for the same purpose. […] The quantities were equalized using GAPDH mRNA as the control.
Fibroblasts were isolated from three human hearts and used in the […]. […] The mRNAs (collagen 1, matrix metalloproteinase 2, TGFbeta1 and CTGF) were quantified by real-time PCR using a LightCycler™. […] Real-time PCR (polymerase chain reaction in real time) makes it possible to determine specific nucleic acids quantitatively. […]

| Substance | Collagen synthesis (procollagen type I C-peptide, Absorption, in % of the controls) ([1]; EFH heart No. 1, 24 h) | Collagen synthesis (procollagen type I C-peptide, Absorption, in % of the controls) ([1]; EFH heart No. 4, 24 h) | Collagen synthesis (procollagen type I C-peptide, Absorption, in % of the controls) ([1]; EFH heart No. 10, 5 h) | Collagen synthesis (procollagen type I C-peptide, Absorption, in % of the controls) ([1]; EFH heart No. 11, 5 h) | Collagen synthesis (procollagen type I C-peptide, Absorption, in % of the controls), MV [1] | Collagen synthesis (procollagen type I C-peptide, Absorption, in % of the controls), MV ([1]; listed as TGF β) | Collagen synthesis (procollagen type I C-peptide, Absorption, in % of the controls) ([2]; control heart No. 3, 6 h) | Collagen synthesis (procollagen type I C-peptide, Absorption, in % of the controls) ([2]; control heart No. 3, 12 h) | Collagen synthesis (procollagen type I C-peptide, Absorption, in % of the controls) ([2]; control heart No. 5, 6 h) | Collagen synthesis (procollagen type I C-peptide, Absorption, in % of the controls) ([2]; control heart No. 6, 6 h) | Collagen synthesis (procollagen type I C-peptide, Absorption, in % of the controls), MV [2] | Collagen synthesis (procollagen type I C-peptide, Absorption, in % of the controls) ([1]; EFH heart No. 12, 12 h) | Collagen synthesis (procollagen type I C-peptide, Absorption, in % of the controls) ([1]; EFH heart No. 13, 12 h) | Collagen synthesis (procollagen type I C-peptide, Absorption, in % of the controls) ([1]; EFH heart No. 14, 12 h) | Collagen synthesis (procollagen type I C-peptide, Absorption, in % of the controls), MV ([1]; listed as TNFalpha) | Collagen synthesis (procollagen type I C-peptide, Absorption, in % of the controls), MV ([1]; listed as Ang II) | MMP 2 mRNA ([3]; control 0.43 +/− 0.2) | CTGF mRNA ([3]; control 0.45 +/− 0.27) | Col 1 mRNA ([3]; control 0.56 +/− 0.1) | TGFbeta1 mRNA ([3]; control 0.60 +/− 0.09) |
| --- | --- | --- | --- | --- | --- | --- | --- | --- | --- | --- | --- | --- | --- | --- | --- | --- | --- | --- | --- | --- |
| TGFβ | 166 % of the controls | 377 % of the controls | 142 % of the controls | 123 % of the controls | 202 % of the controls | 202+/−52 % of the controls | 84 % of the controls | 123 % of the controls | 71 % of the controls | 110 % of the controls | 97 % of the controls |  |  |  |  |  |  |  |  |  |
| TNFa | 166 % of the controls | 262 % of the controls | 67 % of the controls | 91 % of the controls | 139 % of the controls |  | 81 % of the controls | 92 % of the controls | 77 % of the controls | 92 % of the controls | 86 % of the controls | 107 % of the controls | 126 % of the controls | 190 % of the controls | 139+/−26 % of the controls |  |  |  |  |  |
| angiotensin II (DRVYIHPF; Angiotensin-2; UniProt P01019 25-32, looked up) [AII, reference compound] | 142 % of the controls | 471 % of the controls | 94 % of the controls | 113 % of the controls |  |  | 84 % of the controls | 92 % of the controls | 88 % of the controls |  | 88 % of the controls |  |  |  |  | 205+/−67 % of the controls and 205 % of the controls | 0.22 +/− 0.1 | 0.34 +/− 0.9 | 0.56 +/− 0.27 | 0.71 +/− 0.07 |
